Molecules are shown by their SMILES. ± gives the expanded uncertainty stated by the source.

The conditions of the series: 298.15 K; 101.33 kPa; Liquid.

For `CCCCCCCC[n+]1ccc2ccccc2c1.N#C[S-]` [2-octylisoquinolinium thiocyanate], the mass density was found to be 1061.69 ± 1.2 kg/m3.

In the case of `CCCCCC[n+]1ccc2ccccc2c1.N#C[S-]` [2-hexylisoquinolinium thiocyanate], the mass density turned out to be 1081.34 ± 1.2 kg/m3.

Usually mass density stands for the mass of a sample divided by its volume.
